For assay [1], the target named is T1, urate transporter 1 (URAT1/SLC22A12) (Homo sapiens, UniProt Q96S37).
T1 sequence (Q96S37 1-553): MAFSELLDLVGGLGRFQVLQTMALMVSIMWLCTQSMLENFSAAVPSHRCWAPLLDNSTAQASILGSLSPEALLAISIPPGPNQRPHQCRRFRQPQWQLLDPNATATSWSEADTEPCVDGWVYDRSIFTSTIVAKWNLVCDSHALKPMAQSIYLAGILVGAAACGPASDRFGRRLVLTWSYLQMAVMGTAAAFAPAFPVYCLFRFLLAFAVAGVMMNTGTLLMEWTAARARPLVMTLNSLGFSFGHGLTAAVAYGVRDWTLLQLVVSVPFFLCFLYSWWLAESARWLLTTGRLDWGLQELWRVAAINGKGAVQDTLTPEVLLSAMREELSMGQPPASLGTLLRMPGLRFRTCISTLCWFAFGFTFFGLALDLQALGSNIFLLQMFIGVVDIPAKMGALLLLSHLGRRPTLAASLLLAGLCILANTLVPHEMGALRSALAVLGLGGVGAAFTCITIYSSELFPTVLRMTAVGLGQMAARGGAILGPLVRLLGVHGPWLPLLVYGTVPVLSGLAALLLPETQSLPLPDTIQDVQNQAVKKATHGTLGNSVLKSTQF

Assay [2] deals with T1, urate transporter 1 (URAT1/SLC22A12). Nature of the assay: [[…]-14C]-urate uptake inhibition in URAT1-expressing […] cells. Also on record: EGFP-tagged URAT1 wild type (pEGFP-C1). In kind it is cell-based.

Read-outs that look alike come from different tables or passages of the source.

The IC50 is the concentration that inhibits the measured activity by half.

In the case of `CCc1oc2ccccc2c1C(=O)c1cc(Br)c(O)c(Br)c1` [benzbromarone], the “% inhibition at 10 μM” value in assay [1] worked out at 96.

With `COc1ccc([C@@H]2CC(=O)c3c(O)cc(O)cc3O2)cc1O` [hesperetin], inhibition in assay [2] was half-maximal at 25.7 µM (IC50).

Turning to `O=C1C[C@@H](c2ccc(O)cc2)Oc2cc(O)cc(O)c21` [naringenin], in assay [2], the IC50 is 16.1 µM.

For `COc1ccc(-c2cc(=O)c3c(OC)c(OC)c(OC)c(OC)c3o2)cc1OC` [nobiletin], the half-inhibitory concentration (IC50) in assay [2] (read-out: IC50) turned out to be 17.6 µM.

The values above are taken from paper PMC7002704, “Inhibitory effect of Citrus flavonoids on the in vitro transport activity of human urate transporter 1 (URAT1/SLC22A12), a renal re-absorber of urate” (NPJ Science of Food, 2020).
